Values after ≈ are worked out from the molar mass of the structure shown. Residues, ends and D or L forms follow the SMILES beside them. Where only a bound is given, the exact number is not on record here.

The source of these data is publication PMC9241943, “LcCCL28-25, Derived from Piscine Chemokine, Exhibits Antimicrobial Activity against Gram-Negative and Gram-Positive Bacteria In Vitro and In Vivo” (Microbiology Spectrum, 2022).

The subject of experiment [1] is Staphylococcus aureus USA300. As to conditions: S. aureus USA300. The protocol: (§1) The MIC assays were performed as previously described ([43]). Briefly, peptides were plated in a 2-fold dilution series (50 μL/well) of Mueller-Hinton broth (MHB) in Costar 96-well cell culture plates (Corning, NY, USA). Three repeats were set for each concentration. E. coli ATCC 25922, A. hydrophila ATCC 7966, P. aeruginosa PAO1, P. aeruginosa FRD1, S. aureus ATCC 25923, S. agalactiae ATCC 13813, S. pneumoniae ATCC 49619, methicillin-resistant S. aureus ATCC 43300, and methicillin-resistant S. aureus USA300 were cultured in Luria-Bertani (LB) medium, while K. pneumoniae CMCC46117 was cultured in tryptic soy broth (TSB) medium. Incubation was done at 37°C and 150 × g for 12 h. Bacteria were transferred to fresh MHB at a ratio of 1% (vol/vol) and incubated to reach a logarithmic growth phase. Then, 50 μL of a bacterial suspension at 4 × 10^6 CFU/mL was added to each well. After incubation at 37°C for 22 ± 2 h, turbidity was measured using an EnSpire multimode plate reader (PerkinElmer, Singapore) at 595 nm.

Another experiment relates to E. coli ATCC 25922. The experiment is described as follows: SYTOX green membrane permeability assay. The format is cell-based, Escherichia coli. As to conditions: E. coli ATCC 25922, 5 μM SYTOX green, read every 1 min. The protocol:
(§2) The SYTOX green staining assay was performed to assess peptide-associated membrane damage ([47], [52]). E. coli ATCC 25922 and S. aureus ATCC 25923 cells in the mid-logarithmic phase were collected, washed thrice, and resuspended (5 × 10^7 CFU/mL) in buffer B (10 mM Tris-HCl, pH 7.4, at 25°C). The bacterial suspensions were mixed with 5 μM SYTOX green and incubated for 15 min at room temperature in the dark. Then, the mixtures were added to black, clear-bottom 96-well plates at a density of 100 μL/well. After peptide addition, SYTOX green uptake was monitored using an EnSpire multimode plate reader (PerkinElmer, Singapore) with an excitation wavelength of 485 nm and an emission wavelength of 520 nm. Each measurement interval was 1 min, totaling 30 to 60 times. Melittin was used as the positive control, while bovine serum albumin (BSA) was the negative control.

Experiment [2] concerns P. aeruginosa FRD1 biofilm. Put plainly: Biofilm inhibition assay (crystal violet). It is filed as cell-based, Pseudomonas aeruginosa. As to conditions: P. aeruginosa FRD1, 6.25 μg/mL (0.5× MIC), 37°C 24 h, triplicate. The protocol: (§3) In vitro static biofilm models have been reported in many studies ([45][–][47]). A Pseudomonas aeruginosa mucoid strain, FRD1, isolated from a cystic fibrosis patient, was used for the biofilm inhibition and eradication assay. The FRD1 strain was shock cultured to logarithmic growth stage at 37°C and 150 × g. After cleaning using PBS and centrifuging thrice, the bacteria were resuspended in MHB medium (with 0.2% glucose) and gradient diluted to an OD600 value of ~0.01.
For the biofilm inhibition assay, 90-μL amounts of bacterial suspensions and 10-μL amounts of increasing concentrations of the peptide were added to a 96-well plate and coincubated at 37°C for 24 h. Then, bacterial biofilms were quantified as follows: (i) planktonic bacteria were removed by washing thrice using PBS, (ii) biofilm bacteria were fixed in 100 μL of 4% paraformaldehyde at room temperature for 15 min and (iii) stained with 100 μL of 0.1% crystal violet for 30 min, (iv) the dye was removed, followed by washing twice using PBS, adding 200 μL of 95% ethanol to each well to dissolve the crystal violet, and finally, (v) absorbance was measured at 590 nm using an EnSpire multimode plate reader (PerkinElmer, Singapore).

Another experiment concerns S. aureus ATCC 25923. Put plainly: SYTOX green membrane permeability assay. As to conditions: S. aureus ATCC 25923, 5 μM SYTOX green, read every 1 min. The format is cell-based, Staphylococcus aureus. The protocol: as §2
Experiment [3] concerns Aeromonas hydrophila ATCC 7966. The format is cell-based. As to conditions: ATCC 7966, 2 h. How it is done:
as §1, with “After incubation at 37°C for 22 ± 2 h, turbidity was measured using an EnSpire multimode plate reader (PerkinElmer, Singapore) at 595 nm.” left out

Experiment [4] concerns Klebsiella pneumoniae CMCC46117. The format is cell-based. As to conditions: CMCC46117, 2 h. The protocol:
as §1, with “After incubation at 37°C for 22 ± 2 h, turbidity was measured using an EnSpire multimode plate reader (PerkinElmer, Singapore) at 595 nm.” left out

The subject of a further experiment is Gram-negative bacteria. The experiment is described as follows: Time-kill curves (4x MIC). It is filed as cell-based. As to conditions: 4× MIC. The protocol: (§4) Consistent with previous reports, time-kill curves of lcCCL28-25 against Gram-negative and Gram-positive bacteria were performed under 4× MIC conditions ([44]). Bacteria were incubated to the logarithmic growth stage. Bacterial cells in the logarithmic growth phase were diluted to achieve log(CFU/mL) values of ~5 to 6 and incubated with lcCCL28-25 for 1, 2, 4, 8, 16, 30, 60, 120, and 240 min. At each time point, 50-μL amounts of the samples were diluted to different concentrations and plated onto agar plates. After overnight incubation, the numbers of colonies on the plates were counted.

In a further experiment the test system is Gram-positive bacteria. Put plainly: Time-kill curves (4x MIC). The format is cell-based. As to conditions: 4× MIC. How it is done:
as §4

The subject of experiment [5] is P. aeruginosa FRD1 biofilm. The experiment is described as follows: Biofilm eradication assay (crystal violet). As to conditions: for biofilm eradication rate: 24-h mature FRD1 biofilm, 2 h. The format is cell-based, Pseudomonas aeruginosa. How it is done:
as §3
For the eradication assay, biofilms of the FRD1 strain were grown in a 96-well plate. Briefly, 100-μL amounts of the bacterial suspension were plated and incubated at 37°C for 24 h. Then, wells containing the biofilms were washed thrice using PBS. The peptide was serially diluted in MHB medium (with 0.2% glucose) and added to the 96-well plates (100 μL/well). The plates were incubated for 2 h at 37°C. Finally, bacterial biofilms were quantified as described above for the biofilm inhibition assay.

On to `CSCC[C@H](NC(=O)[C@H](Cc1c[nH]c2ccccc12)NC(=O)[C@H](CCCCN)NC(=O)[C@@H]1CCCN1C(=O)[C@H](Cc1c[nH]cn1)NC(=O)[C@H](C)N)C(=O)N[C@@H](CCC(=O)O)C(=O)N[C@H](C(=O)N[C@H](C(=O)N[C@@H](CCCNC(=N)N)C(=O)N[C@@H](CO)C(=O)N[C@@H](CCCNC(=N)N)C(=O)N[C@@H](CCC(N)=O)C(=O)N[C@@H](CCCNC(=N)N)C(=O)N[C@@H](CCCCN)C(=O)N[C@@H](CCCCN)C(=O)N[C@@H](CCCCN)C(=O)N[C@@H](Cc1c[nH]cn1)C(=O)N[C@@H](CC(N)=O)C(=O)N[C@@H](CCCCN)C(=O)N[C@@H](CCCNC(=N)N)C(=O)N[C@@H](CCCNC(=N)N)C(=O)N[C@@H](C)C(=O)N[C@H](C(=O)N[C@@H](Cc1ccc(O)cc1)C(=O)O)[C@@H](C)O)C(C)C)C(C)C` [lcCCL28-25] (H-AHPKWMEVVRSRQRKKKHNKRRATY-OH; N-terminus and C-terminus assumed), for which the “decrease in antimicrobial activity with CaCl2” value in [1] (2.5 mM CaCl2 versus peptide only) is reported as 2 fold. In [1] (150 mM NaCl versus peptide only), the “decrease in antimicrobial activity with NaCl” value was 4 fold. For the same molecule, in [1] (10% mouse serum), the “reduction of antimicrobial activity under 10% serum” value is reported as 4 fold. Further, in [1] (20% mouse serum), the “reduction of antimicrobial activity under 20% serum” value turned out to be 8 fold. Also, the “reduction of antimicrobial activity under 40% serum” value in experiment [1] (40% mouse serum) came out at 32 fold. Also, the “SYTOX green fluorescence intensity” value with E. coli ATCC 25922 is “did not increase significantly in a short time (20 min)”; with S. aureus ATCC 25923, “increased rapidly within 20 min”. Besides, the “reduction of biofilm formation” value in [2] is on record as ~ 64%. The values for the MIC in experiment [3] and in experiment [4] were greater than 50.00 µg/mL and 25.00 µg/mL (≈ 7.83 µM), respectively. Further, the “time for CFU counts to be reduced by more than half” value is given as “more than 1 h” in the experiment on Gram-negative bacteria and no more than 10 min in the experiment on Gram-positive bacteria. Further, the biofilm eradication rate result in experiment [5] (12.5 μg/mL) is “more than 80%”; in experiment [5] (25 μg/mL) it was “above 90%”. For the same molecule, the “concentration required to eradicate ~50% of biofilm” value in experiment [5] (24-h mature P. aeruginosa FRD1 biofilm, 2 h treatment, crystal violet) turned out to be 3.13 µg/mL.
